From ChEMBL document CHEMBL1201862, “PubChem BioAssay data set” (2004)
Active and inactive are the calls of the source.

Experiments:
[1] = target: Delta-type opioid receptor (Homo sapiens, UniProt P41143); experiment: Counterscreen for agonists of heterodimerization of the mu 1 (OPRM1) and delta 1 (OPRD1) opioid receptors: Luminescence-based cell-based high throughput dose response assay to identify agonists of OPRD1 homodimerization. [Related pubchem assays (depositor defined):AID504326, AID504355, AID504692, AID504904, AID504905]; assay type: functional
Mu-type opioid receptor = Mu-type opioid receptor (Homo sapiens, UniProt P35372); experiment: Counterscreen for agonists of heterodimerization of the mu 1 (OPRM1) and delta 1 (OPRD1) opioid receptors: Luminescence-based cell-based high throughput dose response assay to identify agonists of OPRM1 homodimerization.; assay type: functional;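 also: U2OS cells expressing OPRM1 and beta-arrestin as split beta-galactosidase partners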
[2] = target: 5-hydroxytryptamine receptor 5A (Homo sapiens, UniProt P47898); experiment: Counterscreen for agonists of OPRM1-OPRD1 heterodimerization: luminescence-based cell-based high throughput dose response assay to identify agonists of 5-hydroxytryptamine (serotonin) 5A receptor (HTR5A). [Related pubchem assays (depositor defined):AID504326, AID504355, AID504692, AID504904, AID504905]; assay type: functional
HEK293 [3] = experiment: cells; conditions: Homo sapiens
HEK293 [4] = experiment: cells; conditions: Homo sapiens; remark: listed apart in the source
Escherichia coli = experiment: microbe, parasite or virus in culture
[5] = luciferase reporter signal suppression in cells – H4 neuroglioma cells, luminescence, dose response (AID 1990); assay type: functional, cell-based
[6] = Luminescence Cell-Based Dose Response HTS to Identify Inhibitors of 5'UTR Stem-Loop Driven Prion Protein mRNA Translation in H4 Neuroglioblastoma Cells. [Related pubchem assays: 1827 (Project Summary), 1813 (Primary HTS)]; assay type: functional
[7] = alpha-synuclein stem-loop luciferase translation blockers – H4 neuroglioma cells, luminescence, confirmation (AID 1988); assay type: functional, cell-based
Cytochrome P450 2C19 = Cytochrome P450 2C19 (Homo sapiens, UniProt P33261); experiment: Cytochrome panel assay with activity outcomes. Panel member name: p450-cyp2c19 Compounds with AC50 equal or less than 10 uM are considered active; assay type: functional; conditions: read-out: AC50
Cytochrome P450 1A2 = target: T1, Cytochrome P450 1A2 (Homo sapiens, UniProt P05177);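 also: PubChem cytochrome P450 panel assay, CYP1A2 panel member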
T1 sequence (P05177 whole entry): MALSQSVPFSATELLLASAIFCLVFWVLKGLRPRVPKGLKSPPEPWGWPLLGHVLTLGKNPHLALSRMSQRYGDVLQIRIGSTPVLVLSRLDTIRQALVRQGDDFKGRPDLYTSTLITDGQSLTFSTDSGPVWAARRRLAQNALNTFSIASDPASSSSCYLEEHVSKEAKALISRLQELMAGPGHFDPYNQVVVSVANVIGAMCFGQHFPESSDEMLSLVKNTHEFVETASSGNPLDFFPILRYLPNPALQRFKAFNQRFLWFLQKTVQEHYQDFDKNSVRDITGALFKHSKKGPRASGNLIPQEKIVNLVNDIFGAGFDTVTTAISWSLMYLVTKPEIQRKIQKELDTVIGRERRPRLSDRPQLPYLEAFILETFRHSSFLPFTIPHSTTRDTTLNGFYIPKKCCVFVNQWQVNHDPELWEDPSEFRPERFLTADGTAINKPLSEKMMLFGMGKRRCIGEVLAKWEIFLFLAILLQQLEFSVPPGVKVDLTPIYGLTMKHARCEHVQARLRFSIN

Cytochrome P450 2D6 = Cytochrome P450 2D6 (Homo sapiens, UniProt P10635);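 also: CYP2D6 member of a cytochrome P450 panel assay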
Cytochrome P450 3A4 = Cytochrome P450 3A4 (Homo sapiens, UniProt P08684);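 also: CYP3A4 tested as one member of a cytochrome P450 panel screen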
HEK293 [8] = experiment: inhibition of NOD1-driven NF-kB reporter – cell-based, luminescence, uHTS, primary screen (AID 1578); assay type: functional; conditions: Homo sapiens
HEK293 [9] = experiment: cells; assay type: functional, cell-based; conditions: Homo sapiens
HEK293 [10] = experiment: cells; assay type: functional, cell-based; conditions: Homo sapiens; remark: listed apart in the source
HEK293 [11] = experiment: NOD2 signaling inhibitors in MDP-stimulated cells, cell-based, uHTS, luminescence (AID 2001); assay type: functional; conditions: Homo sapiens
Galanin receptor type 3 = target: T2, Galanin receptor type 3 (Homo sapiens, UniProt O60755); experiment: Fluorescence-based cell-based primary high throughput dose response assay to identify antagonists of the Galanin Receptor 3 (GalR3).; assay type: functional
T2 sequence (O60755 whole entry): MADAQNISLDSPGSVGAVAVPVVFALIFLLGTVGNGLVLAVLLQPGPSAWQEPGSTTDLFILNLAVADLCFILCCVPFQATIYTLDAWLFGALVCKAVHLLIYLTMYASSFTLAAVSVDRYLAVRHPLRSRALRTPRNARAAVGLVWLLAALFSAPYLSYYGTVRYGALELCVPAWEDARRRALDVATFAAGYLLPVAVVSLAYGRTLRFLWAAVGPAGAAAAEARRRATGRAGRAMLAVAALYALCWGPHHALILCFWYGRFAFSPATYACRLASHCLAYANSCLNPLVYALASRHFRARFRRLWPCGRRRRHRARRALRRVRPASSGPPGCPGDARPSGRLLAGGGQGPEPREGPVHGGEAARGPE

cells = assay type: functional, cell-based; conditions: HEK-CNG
[12] = NIH-3T3 fibroblast cytotoxicity, dose response, cytotoxicity control, cell-based, fluorescence, Alamar Blue, secondary assay (AID 2327); assay type: functional;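 also: NIH-3T3 mouse fibroblasts cultured with fluconazole at 8 µg/mL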
[13] = fluconazole-exposed Candida albicans growth modulators – fluorescence, retest, confirmation (AID 2467); assay type: functional, cell-based
[14] = target: T3, Endoribonuclease toxin MazF (Escherichia coli K-12, UniProt P0AE70); experiment: activation of MazEF endoribonuclease cleavage – biochemical, fluorescence, single-stranded RNA substrate, uHTS hits, dose response (AID 588481); assay type: functional
T3 sequence (P0AE70 whole entry): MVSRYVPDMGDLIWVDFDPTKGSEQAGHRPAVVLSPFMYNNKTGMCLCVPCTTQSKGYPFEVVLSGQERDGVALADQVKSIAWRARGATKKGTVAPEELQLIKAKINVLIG

[15] = target: T3, Endoribonuclease toxin MazF; experiment: substrate-only fluorescence increase artefacts – biochemical, single-stranded RNase substrate, counter-screen for MazEF activator project, dose response (AID 588502); assay type: functional
[16] = target: T4, RNA-binding protein pos-1 (Caenorhabditis elegans, UniProt G5EF15); experiment: disruptors of C. elegans POS-1 RNA interaction – biochemical, fluorescence polarization, dose response (AID 1964);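 also: purified POS-1 fused to maltose binding protein made in E. coli; potency of compounds blocking POS-1 binding to fluorescent RNA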
T4 sequence (G5EF15 whole entry): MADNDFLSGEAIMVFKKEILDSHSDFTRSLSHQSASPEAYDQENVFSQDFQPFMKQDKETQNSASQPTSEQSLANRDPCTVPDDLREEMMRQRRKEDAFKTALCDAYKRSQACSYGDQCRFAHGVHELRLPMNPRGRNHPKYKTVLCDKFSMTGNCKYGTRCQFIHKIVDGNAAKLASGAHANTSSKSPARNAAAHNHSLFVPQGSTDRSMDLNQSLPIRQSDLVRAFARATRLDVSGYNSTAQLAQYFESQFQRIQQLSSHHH

[17] = target: T5, Zinc finger protein mex-5 (Caenorhabditis elegans, UniProt Q9XUB2); experiment: potency of MEX-5 RNA-binding blockers – biochemical, C. elegans, fluorescence polarization, dose response (AID 1960)
T5 sequence (Q9XUB2 whole entry): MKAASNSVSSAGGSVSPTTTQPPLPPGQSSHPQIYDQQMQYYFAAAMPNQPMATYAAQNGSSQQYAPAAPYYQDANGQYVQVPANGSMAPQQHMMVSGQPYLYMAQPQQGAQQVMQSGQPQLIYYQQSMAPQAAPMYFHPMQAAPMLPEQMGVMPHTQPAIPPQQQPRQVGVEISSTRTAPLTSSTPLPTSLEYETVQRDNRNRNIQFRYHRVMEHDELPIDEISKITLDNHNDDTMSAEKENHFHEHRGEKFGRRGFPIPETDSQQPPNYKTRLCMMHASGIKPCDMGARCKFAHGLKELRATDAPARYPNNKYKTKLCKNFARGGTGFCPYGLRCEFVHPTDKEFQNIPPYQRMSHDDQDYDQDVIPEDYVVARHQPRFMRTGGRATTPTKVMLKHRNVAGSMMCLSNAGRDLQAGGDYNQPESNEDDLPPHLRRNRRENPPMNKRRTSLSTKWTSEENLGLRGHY

Mu-type opioid receptor, sequence (P35372 whole entry): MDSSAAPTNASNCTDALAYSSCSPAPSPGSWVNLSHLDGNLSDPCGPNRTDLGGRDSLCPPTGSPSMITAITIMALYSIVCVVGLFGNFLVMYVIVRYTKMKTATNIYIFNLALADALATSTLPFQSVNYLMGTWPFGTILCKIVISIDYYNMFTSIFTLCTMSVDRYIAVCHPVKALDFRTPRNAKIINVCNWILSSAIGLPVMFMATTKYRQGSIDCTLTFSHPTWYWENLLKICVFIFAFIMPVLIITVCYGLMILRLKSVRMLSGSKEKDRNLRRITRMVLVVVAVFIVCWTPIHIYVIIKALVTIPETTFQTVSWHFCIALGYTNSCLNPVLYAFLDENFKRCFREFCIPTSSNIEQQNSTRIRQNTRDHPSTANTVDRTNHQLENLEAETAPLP
5-hydroxytryptamine receptor 5A, sequence (P47898 whole entry): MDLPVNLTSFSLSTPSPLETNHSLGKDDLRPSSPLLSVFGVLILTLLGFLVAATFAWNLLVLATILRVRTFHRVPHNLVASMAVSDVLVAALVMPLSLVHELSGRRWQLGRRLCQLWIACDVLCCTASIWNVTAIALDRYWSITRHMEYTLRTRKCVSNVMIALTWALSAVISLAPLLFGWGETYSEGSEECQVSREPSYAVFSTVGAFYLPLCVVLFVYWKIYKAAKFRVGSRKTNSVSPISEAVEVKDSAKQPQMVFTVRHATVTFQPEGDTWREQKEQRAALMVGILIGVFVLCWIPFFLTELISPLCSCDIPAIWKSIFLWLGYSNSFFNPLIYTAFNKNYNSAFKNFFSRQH
Cytochrome P450 2D6, sequence (P10635 whole entry): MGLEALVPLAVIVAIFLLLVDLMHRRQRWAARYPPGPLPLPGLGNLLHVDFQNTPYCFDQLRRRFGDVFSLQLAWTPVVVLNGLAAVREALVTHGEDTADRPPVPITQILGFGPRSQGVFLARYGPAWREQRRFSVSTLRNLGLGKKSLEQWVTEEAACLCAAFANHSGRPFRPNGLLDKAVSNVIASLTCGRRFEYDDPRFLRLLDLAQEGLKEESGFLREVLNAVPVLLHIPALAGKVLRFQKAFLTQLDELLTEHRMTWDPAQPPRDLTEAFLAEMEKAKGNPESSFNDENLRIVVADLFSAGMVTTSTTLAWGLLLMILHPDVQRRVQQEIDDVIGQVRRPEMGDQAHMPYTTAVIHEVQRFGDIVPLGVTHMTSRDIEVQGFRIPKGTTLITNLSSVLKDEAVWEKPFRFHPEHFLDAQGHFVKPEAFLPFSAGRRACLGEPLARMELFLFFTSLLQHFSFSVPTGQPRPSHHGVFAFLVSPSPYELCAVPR
Delta-type opioid receptor, sequence (P41143 whole entry): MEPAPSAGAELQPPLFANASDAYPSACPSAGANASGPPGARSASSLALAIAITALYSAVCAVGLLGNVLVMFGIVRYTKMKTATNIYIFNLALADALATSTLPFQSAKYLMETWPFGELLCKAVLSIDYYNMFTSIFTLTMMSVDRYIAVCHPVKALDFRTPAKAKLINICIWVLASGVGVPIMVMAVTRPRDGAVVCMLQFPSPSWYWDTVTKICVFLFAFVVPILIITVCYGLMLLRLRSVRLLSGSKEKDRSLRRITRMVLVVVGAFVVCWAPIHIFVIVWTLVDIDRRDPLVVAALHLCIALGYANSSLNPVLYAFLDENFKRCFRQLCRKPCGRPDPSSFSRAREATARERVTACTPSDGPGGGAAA
Cytochrome P450 2C19, sequence (P33261 whole entry): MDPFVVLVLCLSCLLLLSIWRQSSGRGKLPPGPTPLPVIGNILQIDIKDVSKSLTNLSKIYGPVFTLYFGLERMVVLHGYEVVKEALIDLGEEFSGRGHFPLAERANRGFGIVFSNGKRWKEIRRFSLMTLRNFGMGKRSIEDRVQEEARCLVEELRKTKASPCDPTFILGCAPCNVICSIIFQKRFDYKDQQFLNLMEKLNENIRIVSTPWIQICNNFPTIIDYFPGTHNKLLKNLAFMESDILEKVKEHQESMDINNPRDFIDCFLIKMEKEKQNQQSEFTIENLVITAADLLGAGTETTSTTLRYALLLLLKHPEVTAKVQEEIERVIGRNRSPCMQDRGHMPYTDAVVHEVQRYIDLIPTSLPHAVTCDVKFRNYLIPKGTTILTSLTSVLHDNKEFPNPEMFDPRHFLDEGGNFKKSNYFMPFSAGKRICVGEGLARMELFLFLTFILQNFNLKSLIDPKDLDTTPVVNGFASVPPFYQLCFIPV
Cytochrome P450 3A4, sequence (P08684 whole entry): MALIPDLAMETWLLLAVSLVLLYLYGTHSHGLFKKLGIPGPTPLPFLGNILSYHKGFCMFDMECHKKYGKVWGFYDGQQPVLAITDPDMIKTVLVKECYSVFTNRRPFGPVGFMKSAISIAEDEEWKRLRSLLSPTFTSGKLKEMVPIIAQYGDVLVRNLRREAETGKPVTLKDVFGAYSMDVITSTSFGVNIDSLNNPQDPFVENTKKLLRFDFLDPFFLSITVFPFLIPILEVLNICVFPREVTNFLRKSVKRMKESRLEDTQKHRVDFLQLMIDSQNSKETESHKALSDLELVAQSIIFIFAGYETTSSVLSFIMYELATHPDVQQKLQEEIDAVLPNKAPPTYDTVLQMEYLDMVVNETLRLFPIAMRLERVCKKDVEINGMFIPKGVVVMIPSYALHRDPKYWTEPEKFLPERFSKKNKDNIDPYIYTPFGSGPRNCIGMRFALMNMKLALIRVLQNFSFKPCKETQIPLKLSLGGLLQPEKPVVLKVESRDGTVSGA

Q: Which results are given for `COc1ccc(-c2nc(CN3CCC(C(=O)NC4CCCc5ccccc54)CC3)c(C)o2)cc1OC` (stereo unspecified)?
A: EC50 [1]: > 92.4 µM (inactive); EC50 (Mu-type opioid receptor): 20.8 µM (inactive); EC50 [2]: > 92.4 µM (inactive)

Q: Which results are given for `O=C1C=CC(O)C2(CO)OC12` (stereo unspecified)?
A: EC50 (HEK293 [3]): > 59.6 µM (inactive); EC50 (HEK293 [4]): > 59.6 µM (inactive)

Q: Which AC50 (Escherichia coli) does the source give for `C=CCNC(=O)c1ccccc1NC(=O)Nc1ccccc1` here?
A: Its AC50 is 44.4 µM (active).

Q: For `CCc1ccc(NC(=O)CCn2nc(C)c(S(=O)(=O)N3CCCCC3)c2C)cc1`, which EC50 (HEK293 [3]) is on record?
A: The EC50 was > 59.7 µM (inactive).

Q: What about the EC50 (HEK293 [4]) of the same compound?
A: The EC50 was > 59.7 µM (inactive).

Q: With `O=C(Nc1ccc(F)c(Cl)c1)c1cccnc1` as the compound, how does the AC50 (Escherichia coli) read?
A: Its AC50 is 61.5 µM (active).

Q: For `COc1ccc(-c2nn3c(C4CCCCC4)nnc3s2)cc1OC`, which EC50 [5] is on record?
A: The EC50 was 15.5 µM (active).

Q: And the EC50 [6]?
A: Its EC50 is 18.1 µM (active).

Q: What about the EC50 [7] of the same compound?
A: Its EC50 is 13.5 µM (active).

Q: And the EC50 (HEK293 [3])?
A: The EC50 was > 59.7 µM (inactive).

Q: And the EC50 (HEK293 [4])?
A: The EC50 was > 59.7 µM (inactive).

Q: Which AC50 (Cytochrome P450 2C19) does the source give for `CC(C)C(=O)N/N=C/c1ccc(OCc2ccccc2)cc1` here?
A: Its AC50 is 10 µM (inconclusive).

Q: And the AC50 (Cytochrome P450 1A2)?
A: The AC50 was 15.8 µM (inconclusive).

Q: And the AC50 (Cytochrome P450 2D6)?
A: The AC50 was “inconclusive”.

Q: What about the AC50 (Cytochrome P450 3A4) of the same compound?
A: Its AC50 is “inconclusive”.

Q: Which results are given for `COc1ccc(NS(=O)(=O)c2ccc(NC(=O)c3ccc(CN4CCOCC4)cc3)cc2)cc1`?
A: EC50 (HEK293 [8]): 4.22 µM (active); IC50 (HEK293 [9]): 5.35 µM (active); IC50 (HEK293 [10]): > 20 µM (inactive); IC50 (HEK293 [11]): 7.65 µM (active); IC50 (Galanin receptor type 3): 2.94 µM (active); EC50 (cells): > 29.9 µM (inactive)

Q: With `CC(C)OC(=O)c1nn2c(C(F)(F)F)cc(-c3ccco3)nc2c1Cl` as the compound, how does the AC50 (Escherichia coli) read?
A: Its AC50 is 43.9 µM (active).

Q: Which EC50 [12] does the source give for `Cc1ccc(-c2nc3sc(C#N)c(N)n3c(=O)c2C#N)cc1` here?
A: Its EC50 is > 160 µM (inactive).

Q: And the EC50 [13]?
A: The EC50 was 1.72 µM (active).

Q: What about the EC50 [14] of the same compound?
A: The EC50 was > 99 µM (inactive).

Q: And the EC50 [15]?
A: Its EC50 is > 99 µM (inactive).

Q: Which results are given for `O=S(=O)(NC1CC1)c1ccc(S(=O)(=O)N2CCCC3(CCCCC3)C2)cc1`?
A: EC50 [1]: > 92.5 µM (inactive); EC50 (Mu-type opioid receptor): > 92.5 µM (inactive); EC50 [2]: > 92.5 µM (inactive)

Q: With `COc1ccc(NC(=O)c2sc3nc(-c4cccnc4)ccc3c2N)cc1OC` as the compound, how does the EC50 [16] read?
A: The EC50 was 115 µM (inconclusive).

Q: What about the EC50 [17] of the same compound?
A: The EC50 was > 300 µM (inconclusive).

Q: And the EC50 [14]?
A: Its EC50 is > 99 µM (inactive).

Q: And the EC50 [15]?
A: Its EC50 is 54.5 µM (inactive).

Q: Which AC50 (Cytochrome P450 2D6) does the source give for `c1cncc(CNCc2cccnc2)c1` here?
A: The AC50 was “inconclusive”.

Q: Which EC50 (HEK293 [8]) does the source give for `O=C(Nc1ccc(Br)c2ccccc12)c1ccc2ccccc2c1O` here?
A: The EC50 was 0.79 µM (active).

Q: What about the IC50 (HEK293 [9]) of the same compound?
A: The IC50 was 2.6 µM (active).

Q: What about the IC50 (HEK293 [10]) of the same compound?
A: The IC50 was 13.7 µM (active).

Q: And the IC50 (HEK293 [11])?
A: The IC50 was 1.91 µM (active).
